# Test results published in PubChem BioAssay (NCI).
#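 Exposure lasted 48 hours, with cells grown in 96-well plates and compounds tested at five concentrations. At the TGI there is no net growth.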
# Columns and labels:
# Experiment in all cases: NCI anticancer screen, dose series, 48 h
# XF 498 CNS = system: XF 498 CNS
# CCRF-CEM leukemia = system: CCRF-CEM leukemia
# MALME-3M melanoma = system: MALME-3M melanoma
# DLD-1 colon = system: DLD-1 colon
# NCI-H522 lung = system: NCI-H522 lung
# LXFL 529 NSCLC = system: LXFL 529 NSCLC
# DMS 114 small cell lung = system: DMS 114 small cell lung
# DMS 273 small cell lung = system: DMS 273 small cell lung
# M19-MEL melanoma = system: M19-MEL melanoma
# RXF-631 renal = system: RXF-631 renal
# IGROV1 ovarian = system: IGROV1 ovarian
# M14 melanoma = system: M14 melanoma
# SNB-78 CNS = system: SNB-78 CNS
# KM20L2 colon = system: KM20L2 colon
# HOP-18 NSCLC = system: HOP-18 NSCLC
Compound,TGI (XF 498 CNS),TGI (CCRF-CEM leukemia),TGI (MALME-3M melanoma),TGI (DLD-1 colon),TGI (NCI-H522 lung),TGI (LXFL 529 NSCLC),TGI (DMS 114 small cell lung),TGI (DMS 273 small cell lung),TGI (M19-MEL melanoma),TGI (RXF-631 renal),TGI (IGROV1 ovarian),TGI (M14 melanoma),TGI (SNB-78 CNS),TGI (KM20L2 colon),TGI (HOP-18 NSCLC)
CC(C)(CN1CCCCC1)C(=O)CC(SCCN)c1ccc(Cl)cc1 (configuration not stated),4.1 µM,5.19 µM,11.6 µM,3.35 µM,4.8 µM,3.33 µM,3.43 µM,4.96 µM,7.39 µM,14.3 µM,8.48 µM,3.63 µM,8.9 µM,5.43 µM,
CN(C)CC1CCCCCCCCCCCCC(CN(C)C)C1=O (configuration not stated),,,29.4 µM,29.6 µM,,28.1 µM,31.3 µM,22.9 µM,25.1 µM,,33.1 µM,25.9 µM,28.7 µM,24.9 µM,30.1 µM
O=[N+]([O-])c1ccc(CN=C2NNS(=O)(=O)c3ccccc32)cc1,> 100 µM,> 100 µM,> 100 µM,> 100 µM,,> 100 µM,> 100 µM,> 100 µM,> 100 µM,> 100 µM,> 100 µM,> 100 µM,> 100 µM,> 100 µM,
COC1=CC(=O)c2c(cc3c(c2O)-c2c(OC)cc4cc5c(c(O)c4c2OC(=O)CC(C)(O)C3)C(=O)CC(C)(O)C5)C1=O (configuration not stated),3.23 µM,6.59 µM,4.04 µM,9.01 µM,2.67 µM,4.6 µM,3.58 µM,5.31 µM,1.52 µM,,3.97 µM,2.66 µM,7.12 µM,5.29 µM,5.39 µM
O=C(Cc1ccccc1)NN1C(=O)C(Cl)C1c1cccc([N+](=O)[O-])c1 (configuration not stated),> 57.1 µM,5.97 µM,> 100 µM,> 100 µM,3.64 µM,49.7 µM,> 93.4 µM,> 100 µM,> 37.1 µM,,19.3 µM,> 100 µM,> 100 µM,> 100 µM,> 100 µM
O=C1Oc2cc3c(c4cccc1c24)OCN(c1ccccc1)C3,> 100 µM,86.2 µM,> 100 µM,> 100 µM,56.9 µM,> 100 µM,> 100 µM,> 100 µM,> 100 µM,,> 100 µM,> 100 µM,,> 100 µM,
O=C(CCN1CCC(CCO)CC1)Nc1ccc2c(c1)C(=O)c1ccc(NC(=O)CCN3CCC(CCO)CC3)cc1C2=O,,42.5 µM,28.6 µM,22.2 µM,24 µM,19.8 µM,21.7 µM,19.8 µM,> 100 µM,,> 100 µM,,21.6 µM,77.8 µM,80.1 µM
O=P(CCOc1ccccc1OCCP(=O)(c1ccccc1)c1ccc2c(c1)OCCOCCOCCOCCO2)(c1ccccc1)c1ccc2c(c1)OCCOCCOCCOCCO2 (configuration not stated),> 100 µM,> 100 µM,> 100 µM,> 100 µM,> 100 µM,> 100 µM,> 100 µM,> 100 µM,> 100 µM,,> 100 µM,> 100 µM,> 100 µM,> 100 µM,
O=C(Cc1ccccc1)N/N=C(/c1nc2ccc([N+](=O)[O-])cc2[nH]c1=O)C(O)c1ccc(C(O)/C(=N/NC(=O)Cc2ccccc2)c2nc3ccc([N+](=O)[O-])cc3[nH]c2=O)cc1 (configuration not stated),> 100 µM,> 100 µM,> 100 µM,> 100 µM,94.6 µM,> 100 µM,> 100 µM,,> 100 µM,> 100 µM,> 100 µM,> 100 µM,,> 100 µM,
CCCCCCCC(CC(=O)NC(CO)C(=O)NC(CO)CC(C)C)OC(=O)CC(CCCCCCC)OC(=O)CC(CCCCCCC)OC1OC(C)C(O)C(OC2OC(C)C(O)C(O)C2O)C1O (configuration not stated),,15 µM,24 µM,31.7 µM,29.5 µM,18.1 µM,16.5 µM,24 µM,23.3 µM,,26.4 µM,17.5 µM,39.1 µM,32.1 µM,32.1 µM
CN(C)CCN(C)C(=O)C1CCCN1C(=O)OCc1ccccc1 (configuration not stated),> 100 µM,48.7 µM,> 100 µM,> 100 µM,24 µM,> 100 µM,> 100 µM,> 100 µM,> 100 µM,,> 100 µM,> 100 µM,> 100 µM,> 100 µM,
CCCCCCCCCC/C=C/C=O,> 100 µM,> 100 µM,> 100 µM,> 100 µM,> 100 µM,> 100 µM,> 100 µM,> 100 µM,> 100 µM,,> 100 µM,> 100 µM,> 100 µM,> 100 µM,> 100 µM
CCOC(=O)/C(=C/c1ccccc1Br)P(=O)(OCC)OCC,3.56 µM,3.16 µM,3.47 µM,4.85 µM,2.32 µM,2.92 µM,,3.04 µM,3.68 µM,8.45 µM,10.1 µM,2.95 µM,,5.67 µM,10.7 µM
C=CC(=O)NCNC(=O)C=C,> 100 µM,> 100 µM,> 100 µM,> 100 µM,> 100 µM,> 100 µM,> 100 µM,> 100 µM,> 100 µM,,> 100 µM,> 100 µM,,> 100 µM,> 100 µM
CC(=O)Oc1ccc(Nn2c3ccccc3c3ccccc32)c(C)c1,77.3 µM,> 100 µM,> 100 µM,> 100 µM,46.3 µM,> 100 µM,79.8 µM,51.9 µM,> 100 µM,,94.2 µM,74.3 µM,91.2 µM,78.9 µM,75.8 µM
O=C1C=CC(=O)c2cc(Sc3ccccc3)c(=O)c(Sc3ccccc3)cc21,> 100 µM,60.9 µM,,> 100 µM,25.4 µM,70.3 µM,53.7 µM,> 100 µM,> 100 µM,,> 100 µM,> 100 µM,,> 100 µM,> 100 µM
